Test results as given in ChEMBL document CHEMBL5096217, “Design, synthesis and biological evaluation of novel 4-aminopiperidine derivatives as SMO/ERK dual inhibitors” (Bioorg Med Chem, 2022).

Target: T1, Mitogen-activated protein kinase 1 (Homo sapiens, UniProt P28482)
Assay: Inhibition of ERK2 (unknown origin) using kinase substrate 8 incubated for 40 mins in presence of ATP by mobility shift assay

T1 sequence (P28482 whole entry): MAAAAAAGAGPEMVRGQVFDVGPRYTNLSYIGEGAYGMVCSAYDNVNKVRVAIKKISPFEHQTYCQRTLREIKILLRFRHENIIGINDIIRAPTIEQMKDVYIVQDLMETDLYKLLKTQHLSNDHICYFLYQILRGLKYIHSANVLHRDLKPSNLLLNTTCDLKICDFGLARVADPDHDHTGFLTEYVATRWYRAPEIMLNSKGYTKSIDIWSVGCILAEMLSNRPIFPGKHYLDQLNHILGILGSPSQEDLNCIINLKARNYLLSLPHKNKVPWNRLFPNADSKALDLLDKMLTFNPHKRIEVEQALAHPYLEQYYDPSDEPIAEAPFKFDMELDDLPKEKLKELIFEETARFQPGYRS

IC50 [nM]	SMILES
1320	Cc1c(-c2ccnn2C)nnc(N2CCC(NC(=O)Nc3ccc(Oc4ccnc(NC5CCOCC5)n4)cc3)CC2)c1C
3320	Cc1c(-c2ccnn2C)nnc(N2CCC(NC(=O)c3ccc(NC(=O)c4ccnc(NC5CCOCC5)n4)cc3C(F)(F)F)CC2)c1C
41	Cc1c(-c2cnn(C)c2)nnc(N2CCC(NC(=O)Nc3ccc(Oc4nc(NC5CCOCC5)ncc4Cl)cc3)CC2)c1C
164	Cn1cc(-c2ccc(N3CCC(NC(=O)Nc4ccc(Oc5nc(NC6CCOCC6)ncc5Cl)cc4)CC3)nn2)cn1

Test system: not listed separately
Assay: Antiproliferative activity against human RBE cells overexpressing Hh/ERK pathway assessed as inhibition of cell growth incubated for 96 hrs by CCK8 assay relative to SCH772984
Format: functional

SMILES	fold change (FC)
Cc1c(-c2ccnn2C)nnc(N2CCC(NC(=O)Nc3ccc(Oc4nc(NC5CCOCC5)ncc4Cl)cc3)CC2)c1C	7.59
Cc1c(-c2ccnn2C)nnc(N2CCC(NC(=O)Nc3ccc(Sc4nc(NC5CCOCC5)ncc4Cl)cc3)CC2)c1C	1.33
Cc1c(-c2ccnn2C)nnc(N2CCC(NC(=O)Nc3ccc(Sc4nc(NC5CCOCC5)ncc4C(F)(F)F)cc3)CC2)c1C	0.89

Target: Protein smoothened (Mus musculus, UniProt P56726)
Assay: Inhibition of SMO in mouse 3T3/HH FlashII-7 cells incubated for 36 hrs in presence of SHH by Gli-luciferase reporter assay
Format: cell-based

Chain of Protein smoothened (P56726 whole entry): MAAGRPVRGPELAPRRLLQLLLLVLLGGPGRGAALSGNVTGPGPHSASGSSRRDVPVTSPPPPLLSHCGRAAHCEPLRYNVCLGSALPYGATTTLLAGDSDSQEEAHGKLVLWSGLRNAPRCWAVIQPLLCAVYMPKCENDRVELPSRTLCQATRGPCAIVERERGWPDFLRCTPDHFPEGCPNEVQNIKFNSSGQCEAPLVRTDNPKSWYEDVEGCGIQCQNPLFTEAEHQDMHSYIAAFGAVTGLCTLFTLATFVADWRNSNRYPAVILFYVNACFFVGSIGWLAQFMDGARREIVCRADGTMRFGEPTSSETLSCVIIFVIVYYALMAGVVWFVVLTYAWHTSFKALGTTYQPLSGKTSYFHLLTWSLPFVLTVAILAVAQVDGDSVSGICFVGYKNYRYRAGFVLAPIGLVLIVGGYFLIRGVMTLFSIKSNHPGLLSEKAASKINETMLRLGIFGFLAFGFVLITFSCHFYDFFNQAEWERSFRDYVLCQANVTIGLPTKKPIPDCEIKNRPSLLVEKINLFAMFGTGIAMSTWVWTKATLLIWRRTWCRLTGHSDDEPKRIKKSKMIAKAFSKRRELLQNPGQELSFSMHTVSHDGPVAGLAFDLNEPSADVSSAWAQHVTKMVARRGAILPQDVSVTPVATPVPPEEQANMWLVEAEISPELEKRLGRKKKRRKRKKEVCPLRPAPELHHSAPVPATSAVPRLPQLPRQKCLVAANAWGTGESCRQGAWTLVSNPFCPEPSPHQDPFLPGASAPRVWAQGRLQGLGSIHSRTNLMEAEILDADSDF

IC50 [nM]	SMILES
17.8	Cc1c(-c2ccnn2C)nnc(N2CCC(NC(=O)Nc3ccc(Oc4nc(Nc5cnn(C)c5)ncc4Cl)cc3)CC2)c1C
190	Cc1c(-c2ccnn2C)nnc(N2CCC(NC(=O)Nc3ccc(Oc4nc(NC5CCOCC5)ncc4C(F)(F)F)cc3)CC2)c1C
409	Cc1c(-c2cnn(C)c2)nnc(N2CCC(NC(=O)Nc3ccc(Oc4nc(NC5CCOCC5)ncc4Cl)cc3)CC2)c1C
155	Cc1c(-c2ccnn2C)nnc(N2CCC(NC(=O)Nc3ccc(Sc4nc(NC5CCOCC5)ncc4C(F)(F)F)cc3)CC2)c1C
> 1000	Cn1cc(-c2ccc(N3CCC(NC(=O)Nc4ccc(Oc5nc(NC6CCOCC6)ncc5Cl)cc4)CC3)nn2)cn1
63.9	Cc1c(-c2ccnn2C)nnc(N2CCC(NC(=O)Nc3ccc(Nc4nc(NC5CCOCC5)ncc4Cl)cc3)CC2)c1C
1.18	CN(C(=O)c1ccc(F)cc1C(F)(F)F)C1CCN(c2nnc(-c3ccnn3C)c3ccccc23)CC1 [TALADEGIB]

Further lines, the compound ahead of its results:

SMILES	IC50 [nM]
Cc1c(-c2ccnn2C)nnc(N2CCC(NC(=O)Nc3ccc(Sc4nc(NC5CCOCC5)ncc4Cl)cc3)CC2)c1C	17.6
Cc1cnc(NC2CCOCC2)nc1Oc1ccc(NC(=O)NC2CCN(c3nnc(-c4ccnn4C)c(C)c3C)CC2)cc1	150

Test system: not listed separately
Assay: Antiproliferative activity against human RBE cells overexpressing Hh/ERK pathway assessed as inhibition of cell growth incubated for 96 hrs by CCK8 assay
Format: functional, cell-based

SMILES	IC50 [nM]
O=C(Nc1ccc2[nH]nc(-c3ccncc3)c2c1)[C@@H]1CCN(CC(=O)N2CCN(c3ccc(-c4ncccn4)cc3)CC2)C1	1630
Cc1c(-c2ccnn2C)nnc(N2CCC(NC(=O)Nc3ccc(Oc4nc(NC5CCOCC5)ncc4Cl)cc3)CC2)c1C	12300
Cc1c(-c2ccnn2C)nnc(N2CCC(NC(=O)Nc3ccc(Sc4nc(NC5CCOCC5)ncc4Cl)cc3)CC2)c1C	2170
Cc1c(-c2ccnn2C)nnc(N2CCC(NC(=O)Nc3ccc(Sc4nc(NC5CCOCC5)ncc4C(F)(F)F)cc3)CC2)c1C	1450
CN(C(=O)c1ccc(F)cc1C(F)(F)F)C1CCN(c2nnc(-c3ccnn3C)c3ccccc23)CC1 [TALADEGIB]	> 50000

Target: T1, Mitogen-activated protein kinase 1
Assay: Inhibition of ERK2 (unknown origin) using kinase substrate 8 at 100 nM incubated for 40 mins in presence of ATP by mobility shift assay

inhibition [%]	SMILES
46	Cc1c(-c2ccnn2C)nnc(N2CCC(NC(=O)Nc3ccc(Oc4nc(Nc5cnn(C)c5)ncc4Cl)cc3)CC2)c1C
85	Cc1c(-c2ccnn2C)nnc(N2CCC(NC(=O)Nc3ccc(Oc4nc(NC5CCOCC5)ncc4C(F)(F)F)cc3)CC2)c1C
84.2	Cc1c(-c2ccnn2C)nnc(N2CCC(NC(=O)Nc3ccc(Sc4nc(NC5CCOCC5)ncc4C(F)(F)F)cc3)CC2)c1C
6.6	Cc1c(-c2ccnn2C)nnc(N2CCC(NC(=O)Nc3ccc(Oc4nc(Nc5ccn(C)n5)ncc4Cl)cc3)CC2)c1C
36.9	Cc1c(-c2ccnn2C)nnc(N2CCC(NC(=O)Nc3ccc(Nc4nc(NC5CCOCC5)ncc4Cl)cc3)CC2)c1C

More lines, now with the values behind:

SMILES	inhibition [%]
Cc1c(-c2ccnn2C)nnc(N2CCC(NC(=O)Nc3ccc(Oc4nc(NC(C)C)ncc4Cl)cc3)CC2)c1C	5.6
Cc1c(-c2ccnn2C)nnc(N2CCC(NC(=O)Nc3ccc(Oc4nc(Nc5ccnn5C)ncc4Cl)cc3)CC2)c1C	1.1
Cc1c(-c2ccnn2C)nnc(N2CCC(NC(=O)Nc3ccc(Oc4nc(NC5CCOCC5)ncc4Cl)cc3)CC2)c1C	80.9
Cc1c(-c2ccnn2C)nnc(N2CCC(NC(=O)Nc3ccc(Sc4nc(NC5CCOCC5)ncc4Cl)cc3)CC2)c1C	91.2
Cc1cnc(NC2CCOCC2)nc1Oc1ccc(NC(=O)NC2CCN(c3nnc(-c4ccnn4C)c(C)c3C)CC2)cc1	60.7
Cn1nccc1-c1ccc(N2CCC(NC(=O)Nc3ccc(Oc4nc(NC5CCOCC5)ncc4Cl)cc3)CC2)nn1	46.4

Target: Protein smoothened (Mus musculus) (UniProt P56726)
Assay: Inhibition of SMO in mouse 3T3/HH FlashII-7 cells at 100 nM incubated for 36 hrs in presence of SHH by Gli-luciferase reporter assay
Format: cell-based

Chain of Protein smoothened (Mus musculus) (P56726 whole entry): as above

inhibition [%]	SMILES
89.9	Cc1c(-c2ccnn2C)nnc(N2CCC(NC(=O)Nc3ccc(Oc4nc(NC5CCOCC5)ncc4Cl)cc3)CC2)c1C
90.4	Cc1c(-c2ccnn2C)nnc(N2CCC(NC(=O)Nc3ccc(Oc4ccnc(NC5CCOCC5)n4)cc3)CC2)c1C
68.2	Cc1c(-c2ccnn2C)nnc(N2CCC(NC(=O)c3ccc(NC(=O)c4ccnc(NC5CCOCC5)n4)cc3C(F)(F)F)CC2)c1C
68.5	Cn1nccc1-c1ccc(N2CCC(NC(=O)Nc3ccc(Oc4nc(NC5CCOCC5)ncc4Cl)cc3)CC2)nn1
